Test results as given in ChEMBL document CHEMBL1137440, “Kinesin spindle protein (KSP) inhibitors. Part 6: Design and synthesis of 3,5-diaryl-4,5-dihydropyrazole amides as potent inhibitors of the mitotic kinesin KSP” (Bioorg Med Chem Lett, 2007).
Calls of active or inactive are those of the source. No cut-off for these calls is given here.

What was measured:
Plasma [1] = test: Drug level in A2780 cell bearing mouse plasma at 3 mg/kg, po; assay type: functional, organism-based; set-up: dose 3 mg/kg
A2780 = test: Mitotic arrest in A2780 cells bearing mouse at 3 mg/kg after 22 hrs by phospho-Histone immunohistochemistry assay; assay type: functional, organism-based; set-up: dose 3 mg/kg
Canis familiaris [2] = species: Canis familiaris; test: Induction of drug-induced QTc prolongation in dog cardiovascular model at 40 uM; assay type: functional, organism-based; settings: Canis lupus familiaris, Heart
Plasma [3] = test: Drug level in A2780 cells bearing mouse plasma, po; assay type: functional
Canis familiaris [4] = species: Canis familiaris; test: Induction of drug-induced QTc prolongation in dog cardiovascular model at less than 10 uM; assay type: functional, organism-based; settings: Canis lupus familiaris; Heart
Plasma [5] = test: Protein binding in human plasma; assay type: functional, cell-free
Plasma [6] = test: Protein binding in mouse plasma; assay type: functional, cell-free

PPB (Plasma [5]) [%] | PPB (Plasma [6]) [%] | Structure (SMILES) | Cp (Plasma [1]) [nM] | Activity (A2780) | Activity (Canis familiaris [2]) | Cp (Plasma [3]) [nM] | Activity (Canis familiaris [4])
– | – | CC(=O)N1N=C(c2cc(F)ccc2F)C[C@@]1(C[C@H](F)CN)c1ccccc1 | 38 | Active | inactive | – | –
91 | 92 | CC(=O)N1CCN(CCC[C@@]2(c3ccccc3)CC(c3cc(F)ccc3F)=NN2C(C)=O)CC1 | – | – | – | 56 | Active
